# In paper PMC12571071, “Preventing neuropathy and improving anticancer chemotherapy with a carbazole-based compound” (Science Advances, 2025):
# Read-outs that look alike come from different tables or passages of the source.
# Columns and labels:
# [1] = target: NAMPT (Homo sapiens, UniProt P43490); experiment: NAMPT activity assay (coupled recombinant enzyme kit); format: biochemical; parameters: purchased Abcam ab221819; details: OD450 at 60 min, normalized by subtraction of DMSO value
# From the text: We next tested whether Carba1 could activate NAMPT in vitro. To that aim, we used a commercial recombinant human enzyme assay containing four enzymes: NAMPT, NAM nucleotide adenylyltransferase 1 (NMNAT1), alcohol dehydrogenase (ADH), and diaphorase (see Materials and Methods). In the presence of NAM and 5-phosphoribosyl-1-pyrophosphate (PRPP), NAMPT converts NAM to NMN, which is then converted into NAD^+ by NMNAT1, while ADH converts NAD^+ to NADH. Then, into a coupled-reaction, diaphorase converts NADH into NAD^+ and tetrazolium salt WST-1 {4-[3-(4-iodophenyl)-2-(4-nitro-phenyl)-2H-5-tetrazolio]-1,3-benzene sulfonate} to formazan, which can be detected at optical density at 450 nm (OD450). In practice, we proceeded in two steps. First, Carba1 and the different tested compounds were incubated for 15 min with NAMPT, NMNAT1, NAM, and PRPP to allow NAD^+ production. The reaction was then stopped with FK866 before adding ADH and diaphorase to convert the NAD^+ produced to NADH, and absorbance was monitored at regular intervals.
# NAMPT activity was measured using the commercial kit, NAMPT Activity Assay, according to the manufacturer’s instructions. […] A mixture of water-soluble tetrazolium salts (WST-1), ADH, diaphorase, and ethanol was added and the absorbance (OD450) measured for 90 min using the microplate reader ClarioSTAR (BMG Labtech).
# [2] = test system: carbonic anhydrase (CA); experiment: AS-MS binding assay, carbonic anhydrase (negative control); details: 10 μM compound, 3 μM carbonic anhydrase
# Method: To this end, Carba1 or FK866 (positive control of NAMPT binding) was first incubated with NAMPT or carbonic anhydrase (CA; negative control). Protein-ligand complexes were separated from the unbound compounds by size exclusion chromatography (SEC). To quantify the protein-bound fraction, the complexes were then dissociated using reverse-phase chromatography, and the compounds were analyzed and quantified by mass spectrometry. By comparing the amounts of compound before (preSEC) and after (postSEC) SEC in the presence of CA or NAMPT, we assessed their ability to selectively bind to NAMPT.
# AS-MS was used to assess compound binding to NAMPT. AS-MS was performed by Edelris SAS (www.edelris.com/), which has developed the commercial AS-MS service “EDEN platform,” based on ([71]). Conditions consisted of protein (NAMPT and CA) at 3 μM and compounds (Carba1 and FK866) at 10 μM dissolved in corporate buffer.
# [3] = test system: HeLa cells; experiment: NAD(P)H autofluorescence imaging in live HeLa cells; format: cell-based, human; details: 12 μM, 24 hours
# Method: HeLa cells were seeded in four-chamber Labtek plates at 10,000 cells per well. After 48 hours, cells were preincubated with or without 12 μM Carba1 for 2 hours before addition of FK866 (5 and 10 nM). Drugs were added to phenol red–free DMEM medium, supplemented with 10% FBS 1% penicillin/streptomycin. After 24 hours of drug incubation, cells were imaged using a confocal microscope (LSM 710, Zeiss) with a two-photon excitation at 700 nm (Chameleon Vision Laser, Coherent) and a 40×/1.2 water-immersion objective. Detection was performed in single-photon mode using an avalanche photodiode detector (ConfoCor 3). NAD(P)H signal intensity was quantified as the mean signal per cell using ImageJ and normalized to the cell area.
# [4] = test system: DRG explants; experiment: Mouse embryonic 3D DRG explants: axonal degeneration and myelination (MBP/TUBB3); format: cell-based; details: 72 h
# Method: Embryonic DRG 3D explants were prepared from E13.5 mouse embryos and seeded at one explant/1.9 cm^2 on acid-treated, Matrigel-coated glass coverslips ([64], [65]). Explants were cultured at 37°C under 5% CO2 and high saturated in humidity. From DIV 0 to DIV 3, cultures were maintained in C-medium supplemented with 10% FBS, 1× GlutaMAX, D-glucose (4 g/liter), 2.5S nerve growth factor (NGF; 50 ng/ml), and 1% penicillin/streptomycin. From DIV 3 to DIV 7, neurobasal medium supplemented with 1× B27, 1× GlutaMAX, D-glucose (4 g/liter), 2.5S NGF (50 ng/ml), and 1% penicillin/streptomycin was used to promote axon development. From DIV 7 onward, differentiation medium [C-medium supplemented with 5 μM forskolin, ascorbic acid (50 μg/ml), and heparin (25 μg/ml)] was used to support glial cell maturation and myelination, with medium changes occurring every 2 days.
# DRGs were fixed with 10% formalin for 20 min at R.T., washed with PBS, and permeabilized for 10 min with PBS–0.1% Triton X-100. Blocking was performed using a solution of 3% bovine serum albumin (BSA), 0.1% glycine, and 5% goat preimmune serum in PBS for 2 hours at R.T. DRGs were then washed in PBS and incubated overnight at 4°C with of anti-TUBB3 (1 μg/ml) and anti-MBP (1 μg/ml). After PBS washes, secondary antibodies (goat anti-mouse Alexa Fluor 488, 1:1000, and goat anti-rabbit Alexa Fluor 647, 1:1000) were applied for 1 hour at R.T. Explants were mounted with ProLong Gold antifade reagent with 4′,6-diamidino-2-phenylindole (DAPI).
# Images of random fields of DRG explants, fixed in 4% formaldehyde and immunostained for TUBB3 and MBP, were captured with consistent acquisition times across samples, using a Zeiss AxioImager M2 microscope, equipped with a Hamamatsu Orca R2 camera. Image analysis was performed using Fiji software. The images were thresholded using the default global autothreshold method. For each field, MBP^+ segments were counted and normalized to the TUBB3^+ area.
# [5] = test system: HeLa cells; parameters: method as in PMID 32781579; details: dividing cells, 72-hour treatment; read-out: GI50 (50% of growth inhibition); cited from earlier work
# [6] = test system: HeLa cells; experiment: HeLa cell viability (PrestoBlue) assay, 72 h; format: cell-based, human
# Method: The human HeLa cell line was tested negative for mycoplasma contamination. HeLa cells were grown in RPMI 1640 medium supplemented with penicillin/streptomycin (100 μg/ml) and 10% FBS and maintained in a humidified incubator at 37°C and 5% CO2.
# Cell viability was analyzed using the colorimetric PrestoBlue assay. Cells were seeded in 96-well microplates at a density of 7500 cells per well, allowed to adhere for 24 hours, and treated for 72 hours with either DMSO or drugs at indicated concentrations. PrestoBlue (10 μl) was then added to each well, followed by a 30-min incubation. Fluorescence was measured using a FLUOstar Optima microplate reader (excitation, 544 nm; emission, 580 nm; BMG Labtech).
# NAMPT, sequence (P43490 whole entry): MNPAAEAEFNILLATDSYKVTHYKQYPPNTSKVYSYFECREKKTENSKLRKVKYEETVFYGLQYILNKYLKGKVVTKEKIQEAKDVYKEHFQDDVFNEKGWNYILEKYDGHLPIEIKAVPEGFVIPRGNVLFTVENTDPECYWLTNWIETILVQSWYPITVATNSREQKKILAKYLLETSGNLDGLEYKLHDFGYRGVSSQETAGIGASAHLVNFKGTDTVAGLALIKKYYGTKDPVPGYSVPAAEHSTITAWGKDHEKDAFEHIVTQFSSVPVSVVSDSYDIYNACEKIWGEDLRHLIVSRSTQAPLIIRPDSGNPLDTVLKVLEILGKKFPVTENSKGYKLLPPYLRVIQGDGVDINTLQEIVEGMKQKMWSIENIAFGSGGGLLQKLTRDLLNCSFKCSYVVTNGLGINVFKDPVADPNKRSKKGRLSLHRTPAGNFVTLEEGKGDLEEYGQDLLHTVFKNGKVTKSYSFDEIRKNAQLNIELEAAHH
compound,measurement,setting,value
Cc1cc(-n2cccc2)c(C)c2c1[nH]c1ccc(Cl)cc12 [Compound 1],activation of NAMPT in vitro,[1],enhanced NAMPT activity in a dose-dependent manner
same,binding to CA (AS-MS),[2],neither FK866 nor Carba1 was found to bind CA
same,increase in NAD(P)H production,[3],about 30%
same,fragmented axons in DRG explants under PTX,[4]; 12 μM Carba1 with 500 nM PTX,reduced number of fragmented axons
same,"myelin staining, Carba1 combined with PTX vs PTX alone",[4]; 12 μM Carba1 with 500 nM PTX,substantially improved
same,"MBP staining (axonal myelination), agent alone",[4]; Carba1 12 μM or PTX 500 nM,had no effect
same,GI50,[5],> 25 µM
same,relief of FK866 cytotoxicity,"[6]; HeLa cells, coadministration with FK866",counteracted the toxic effect of FK866 in a dose-dependent manner
same,GI50,"[6]; Homo sapiens, HeLa, cell viability, compound alone, read-out: GI50",> 25 µM
same,GI50 FK866 with carbazole/GI50 FK866,"[6]; ratio at the highest noncytotoxic dose of carbazole analog, readout of NAMPT activation",2.6
same,GI50 PTX/GI50 PTX with carbazole,"[6]; ratio at the highest noncytotoxic dose of carbazole analog, synergy with PTX",2.5
